# Legend:
# Assay type in all cases: physicochemical
# [1] = Rheology of HA viscosupplement/steroid formulations by heat treatment; settings: formulations of HARC with the steroid, compared to control without steroid
# Description: (§1) We conducted various experiments in which a number of steroids, both soluble and insoluble, were mixed with HA-based viscosupplements, and the heat stability of the HA/steroid formulations were evaluated at 121° C. for 30 min (simulated autoclave conditions), to achieve a bioburden inactivation of approximate 30 Fo, where Fo is the total heat applied during the cycle to achieve a desired probable inactivation ratio). Formulations were also evaluated after heating at 80° C. for 24 hours (simulated two year room temperature shelf-life).
# Specifically we tested the TAH mixtures with SYNVISC® and hylastan products of Genzyme Corporation, Framingham Mass.^1 The rheological properties of the heat treated SYNVISC®/steroid and hylastan SGL-80/steroid formulations plus their controls are listed in Tables 1a and 1b, respectively, set out below. 1 Synvisc is a gel-like mixture that is made up of hylan A fluid, hylan B gel, and salt water. Hylan A and hylan B are made from a substance called hyaluronan (also known as sodium hyaluronate) from chicken combs.
# [2] = pH of HA viscosupplement/steroid formulations by heat treatment
# Description: as §1
# (§2) Compositions retained suitable pH and osmolarity.
# [3] = Osmolality of HA viscosupplement/steroid formulations by heat treatment
# Description: as §1, §2
Change in pH after mixing into the HA-based viscosupplements [2],Change in osmolality after mixing into the HA-based viscosupplements [3],SMILES,Effect of the steroid on HARC properties after heat treatment [1]
no significant change,no significant change,"CC(C)(C)CC(=O)OCC(=O)[C@@]12OC(C)(C)O[C@@H]1C[C@H]1[C@@H]3CCC4=CC(=O)C=C[C@]4(C)[C@@]3(F)[C@@H](O)C[C@@]12C [TAH, triamcinolone hexacetonide]",behaved to comparably to control formulations having no steroid
,,CC(=O)OCC(=O)[C@@]1(O)[C@@H](C)C[C@H]2[C@@H]3CCC4=CC(=O)C=C[C@]4(C)[C@@]3(F)[C@@H](O)C[C@@]21C [betamethasone acetate],interacted with HARC
,,C[C@H]1C[C@H]2[C@@H]3CCC4=CC(=O)C=C[C@]4(C)[C@@]3(F)[C@@H](O)C[C@]2(C)[C@@]1(O)C(=O)COP(=O)(O)O [betamethasone phosphate],exacerbated degradation of HARC properties after heat treatment

# — US8680073B2, “Stable hyaluronan/steroid formulation” (Genzyme Corporation, priority 2009, dated 2014)
